In the NIST ThermoML archive (doi:10.1016/j.jct.2018.01.015):
Numbers after ± are expanded uncertainties.

Assay: xn = mol fraction of the nth substance listed
Conditions: Gas, rotating-body viscometer for gases

Structure (SMILES): N#N [nitrogen] + O=C=O
- viscosity (253.16 K, 203.1 kPa, x1 = 0.7498): 0.01498 ± 4.6e-05 mPa·s
- viscosity (253.16 K, 399 kPa, x1 = 0.7498): 0.01501 ± 4.6e-05 mPa·s
- viscosity (253.16 K, 601.1 kPa, x1 = 0.7498): 0.01505 ± 4.6e-05 mPa·s
- viscosity (253.16 K, 797.1 kPa, x1 = 0.7498): 0.01509 ± 4.6e-05 mPa·s
- viscosity (253.16 K, 998.4 kPa, x1 = 0.7498): 0.01514 ± 4.6e-05 mPa·s
- viscosity (253.17 K, 100.3 kPa, x1 = 0.7498): 0.01495 ± 4.6e-05 mPa·s
- viscosity (253.17 K, 108.1 kPa, x1 = 0.4996): 0.01423 ± 4.2e-05 mPa·s
- viscosity (253.17 K, 200.4 kPa, x1 = 0.4996): 0.01425 ± 4.2e-05 mPa·s
- viscosity (253.17 K, 398.3 kPa, x1 = 0.4996): 0.01427 ± 4.2e-05 mPa·s
- viscosity (253.17 K, 596.2 kPa, x1 = 0.4996): 0.01431 ± 4.2e-05 mPa·s
- viscosity (253.17 K, 798.8 kPa, x1 = 0.4996): 0.01435 ± 4.2e-05 mPa·s
- viscosity (253.18 K, 110.4 kPa, x1 = 0.2479): 0.01347 ± 5.3e-05 mPa·s
- viscosity (253.18 K, 203.7 kPa, x1 = 0.2479): 0.01348 ± 5.3e-05 mPa·s
- viscosity (253.18 K, 396.3 kPa, x1 = 0.2479): 0.01348 ± 5.3e-05 mPa·s
- viscosity (253.18 K, 605.2 kPa, x1 = 0.2479): 0.01352 ± 5.3e-05 mPa·s
- viscosity (253.21 K, 100.8 kPa, x1 = 1): 0.01561 ± 3e-05 mPa·s
- viscosity (253.21 K, 200.9 kPa, x1 = 1): 0.01564 ± 3e-05 mPa·s
- viscosity (253.21 K, 400.7 kPa, x1 = 1): 0.01566 ± 3e-05 mPa·s
- viscosity (253.21 K, 600.8 kPa, x1 = 1): 0.01571 ± 3e-05 mPa·s
- viscosity (253.21 K, 800.8 kPa, x1 = 1): 0.01574 ± 3e-05 mPa·s
- viscosity (253.21 K, 1000.9 kPa, x1 = 1): 0.01579 ± 3e-05 mPa·s
- viscosity (253.21 K, 1200.9 kPa, x1 = 1): 0.01584 ± 3e-05 mPa·s
- viscosity (273.19 K, 108.8 kPa, x1 = 0.7498): 0.01597 ± 4.7e-05 mPa·s
- viscosity (273.19 K, 109.2 kPa, x1 = 0.4996): 0.01525 ± 4.2e-05 mPa·s
- viscosity (273.19 K, 201 kPa, x1 = 0.7498): 0.01599 ± 4.7e-05 mPa·s
- viscosity (273.19 K, 400.9 kPa, x1 = 0.4996): 0.0153 ± 4.2e-05 mPa·s
- viscosity (273.19 K, 401.7 kPa, x1 = 0.7498): 0.01602 ± 4.7e-05 mPa·s
- viscosity (273.19 K, 600.3 kPa, x1 = 0.7498): 0.01605 ± 4.7e-05 mPa·s
- viscosity (273.19 K, 603.1 kPa, x1 = 0.4996): 0.01533 ± 4.2e-05 mPa·s
- viscosity (273.19 K, 800.1 kPa, x1 = 0.4996): 0.01537 ± 4.2e-05 mPa·s
- viscosity (273.19 K, 800.2 kPa, x1 = 0.7498): 0.0161 ± 4.7e-05 mPa·s
- viscosity (273.19 K, 1000.1 kPa, x1 = 0.7498): 0.01613 ± 4.7e-05 mPa·s
- viscosity (273.19 K, 1200.6 kPa, x1 = 0.7498): 0.01619 ± 4.7e-05 mPa·s
- viscosity (273.2 K, 201.1 kPa, x1 = 0.2479): 0.01448 ± 5.3e-05 mPa·s
- viscosity (273.2 K, 205.6 kPa, x1 = 0.4996): 0.01527 ± 4.2e-05 mPa·s
- viscosity (273.2 K, 397.9 kPa, x1 = 0.2479): 0.0145 ± 5.3e-05 mPa·s
- viscosity (273.2 K, 601.6 kPa, x1 = 0.2479): 0.01453 ± 5.3e-05 mPa·s
- viscosity (273.2 K, 1004.5 kPa, x1 = 0.4996): 0.01541 ± 4.2e-05 mPa·s
- viscosity (273.21 K, 108.1 kPa, x1 = 0.2479): 0.01448 ± 5.3e-05 mPa·s
- viscosity (273.21 K, 793.9 kPa, x1 = 0.2479): 0.01457 ± 5.3e-05 mPa·s
- viscosity (273.24 K, 100.7 kPa, x1 = 1): 0.01659 ± 3e-05 mPa·s
- viscosity (273.24 K, 200.8 kPa, x1 = 1): 0.01661 ± 3e-05 mPa·s
- viscosity (273.24 K, 400.5 kPa, x1 = 1): 0.01664 ± 3e-05 mPa·s
- viscosity (273.24 K, 600.4 kPa, x1 = 1): 0.01667 ± 3e-05 mPa·s
- viscosity (273.24 K, 800.6 kPa, x1 = 1): 0.01671 ± 3e-05 mPa·s
- viscosity (273.24 K, 1000.6 kPa, x1 = 1): 0.01674 ± 3e-05 mPa·s
- viscosity (273.24 K, 1499.8 kPa, x1 = 1): 0.01685 ± 3e-05 mPa·s
- viscosity (298.19 K, 108.9 kPa, x1 = 0.7498): 0.01719 ± 4.4e-05 mPa·s
- viscosity (298.19 K, 196.7 kPa, x1 = 0.7498): 0.01721 ± 4.4e-05 mPa·s
- viscosity (298.19 K, 402.3 kPa, x1 = 0.7498): 0.01724 ± 4.4e-05 mPa·s
- viscosity (298.19 K, 604.2 kPa, x1 = 0.7498): 0.01727 ± 4.4e-05 mPa·s
- viscosity (298.19 K, 801 kPa, x1 = 0.7498): 0.0173 ± 4.4e-05 mPa·s
- viscosity (298.19 K, 999.3 kPa, x1 = 0.7498): 0.01734 ± 4.4e-05 mPa·s
- viscosity (298.19 K, 1498.4 kPa, x1 = 0.7498): 0.01744 ± 4.4e-05 mPa·s
- viscosity (298.2 K, 202.6 kPa, x1 = 0.7498): 0.0172 ± 4.4e-05 mPa·s
- viscosity (298.2 K, 390.5 kPa, x1 = 0.7498): 0.01724 ± 4.4e-05 mPa·s
- viscosity (298.2 K, 599.6 kPa, x1 = 0.7498): 0.01727 ± 4.4e-05 mPa·s
- viscosity (298.2 K, 807 kPa, x1 = 0.7498): 0.0173 ± 4.4e-05 mPa·s
- viscosity (298.2 K, 1008.5 kPa, x1 = 0.7498): 0.01734 ± 4.4e-05 mPa·s
- viscosity (298.2 K, 1501.4 kPa, x1 = 0.7498): 0.01744 ± 4.4e-05 mPa·s
- viscosity (298.21 K, 108 kPa, x1 = 0.4996): 0.0165 ± 3.1e-05 mPa·s
- viscosity (298.21 K, 108.7 kPa, x1 = 0.2479): 0.01571 ± 4.2e-05 mPa·s
- viscosity (298.21 K, 109 kPa, x1 = 0.4996): 0.01649 ± 3.1e-05 mPa·s
- viscosity (298.21 K, 109 kPa, x1 = 0.7498): 0.01719 ± 4.4e-05 mPa·s
- viscosity (298.21 K, 201.9 kPa, x1 = 0.4996): 0.01651 ± 3.1e-05 mPa·s
- viscosity (298.21 K, 204.7 kPa, x1 = 0.4996): 0.0165 ± 3.1e-05 mPa·s
- viscosity (298.21 K, 205.2 kPa, x1 = 0.2479): 0.01572 ± 4.2e-05 mPa·s
- viscosity (298.21 K, 395.1 kPa, x1 = 0.2479): 0.01574 ± 4.2e-05 mPa·s
- viscosity (298.21 K, 399.1 kPa, x1 = 0.4996): 0.01654 ± 3.1e-05 mPa·s
- viscosity (298.21 K, 402.3 kPa, x1 = 0.4996): 0.01654 ± 3.1e-05 mPa·s
- viscosity (298.21 K, 593.4 kPa, x1 = 0.4996): 0.01656 ± 3.1e-05 mPa·s
- viscosity (298.21 K, 602.9 kPa, x1 = 0.2479): 0.01577 ± 4.2e-05 mPa·s
- viscosity (298.21 K, 603.8 kPa, x1 = 0.4996): 0.01657 ± 3.1e-05 mPa·s
- viscosity (298.21 K, 800.9 kPa, x1 = 0.4996): 0.0166 ± 3.1e-05 mPa·s
- viscosity (298.21 K, 803.6 kPa, x1 = 0.4996): 0.01661 ± 3.1e-05 mPa·s
- viscosity (298.21 K, 807.6 kPa, x1 = 0.2479): 0.01581 ± 4.2e-05 mPa·s
- viscosity (298.21 K, 1000 kPa, x1 = 0.4996): 0.01664 ± 3.1e-05 mPa·s
- viscosity (298.21 K, 1002.4 kPa, x1 = 0.2479): 0.01585 ± 4.2e-05 mPa·s
- viscosity (298.21 K, 1003.3 kPa, x1 = 0.4996): 0.01664 ± 3.1e-05 mPa·s
- viscosity (298.21 K, 1202 kPa, x1 = 0.4996): 0.0167 ± 3.1e-05 mPa·s
- viscosity (298.21 K, 1204.4 kPa, x1 = 0.4996): 0.01669 ± 3.1e-05 mPa·s
- viscosity (298.22 K, 107.9 kPa, x1 = 0.2479): 0.01571 ± 4.2e-05 mPa·s
- viscosity (298.22 K, 204.8 kPa, x1 = 0.2479): 0.01572 ± 4.2e-05 mPa·s
- viscosity (298.22 K, 401.2 kPa, x1 = 0.2479): 0.01575 ± 4.2e-05 mPa·s
- viscosity (298.22 K, 602.1 kPa, x1 = 0.2479): 0.01578 ± 4.2e-05 mPa·s
- viscosity (298.22 K, 794.6 kPa, x1 = 0.2479): 0.01581 ± 4.2e-05 mPa·s
- viscosity (298.22 K, 1003 kPa, x1 = 0.2479): 0.01585 ± 4.2e-05 mPa·s
- viscosity (298.24 K, 800.5 kPa, x1 = 1): 0.01785 ± 2.5e-05 mPa·s
- viscosity (298.25 K, 99.6 kPa, x1 = 1): 0.01776 ± 2.5e-05 mPa·s
- viscosity (298.25 K, 100.7 kPa, x1 = 1): 0.01777 ± 2.5e-05 mPa·s
- viscosity (298.25 K, 200.5 kPa, x1 = 1): 0.01778 ± 2.5e-05 mPa·s
- viscosity (298.25 K, 400.7 kPa, x1 = 1): 0.0178 ± 2.5e-05 mPa·s
- viscosity (298.25 K, 400.8 kPa, x1 = 1): 0.0178 ± 2.5e-05 mPa·s
- viscosity (298.25 K, 600.2 kPa, x1 = 1): 0.01783 ± 2.5e-05 mPa·s
- viscosity (298.25 K, 1000.1 kPa, x1 = 1): 0.01789 ± 2.5e-05 mPa·s
- viscosity (298.25 K, 1500.2 kPa, x1 = 1): 0.01799 ± 2.5e-05 mPa·s
- viscosity (323.2 K, 109.1 kPa, x1 = 0.7498): 0.01837 ± 5.1e-05 mPa·s
- viscosity (323.2 K, 198.2 kPa, x1 = 0.7498): 0.01838 ± 5.1e-05 mPa·s
- viscosity (323.2 K, 393.8 kPa, x1 = 0.7498): 0.01841 ± 5.1e-05 mPa·s
- viscosity (323.2 K, 600.2 kPa, x1 = 0.7498): 0.01844 ± 5.1e-05 mPa·s
- viscosity (323.2 K, 800.3 kPa, x1 = 0.7498): 0.01847 ± 5.1e-05 mPa·s
- viscosity (323.2 K, 1000.9 kPa, x1 = 0.7498): 0.0185 ± 5.1e-05 mPa·s
- viscosity (323.2 K, 1500.1 kPa, x1 = 0.7498): 0.0186 ± 5.1e-05 mPa·s
- viscosity (323.22 K, 108.4 kPa, x1 = 0.2479): 0.01691 ± 5.5e-05 mPa·s
- viscosity (323.22 K, 109.2 kPa, x1 = 0.4996): 0.01769 ± 4.2e-05 mPa·s
- viscosity (323.22 K, 196.1 kPa, x1 = 0.2479): 0.01693 ± 5.5e-05 mPa·s
